Measured values published in PMC11134331, “Cell-active small molecule inhibitors validate the SNM1A DNA repair nuclease as a cancer target” (Chemical Science, 2024).

Legend:
[1] = test system: γH2AX and EGFP-SNM1A foci in U2OS cells; test: microscopic analysis of damage-induced subnuclear foci, U2OS cells expressing EGFP-SNM1A; assay type: cell-based, human
Experimental: To this end, cells stably expressing N-terminally EGFP-tagged SNM1A (EGFP-SNM1A) were treated with 50 μM cisplatin alone, 19 (50 μM), or with a combination of both compounds. It is known that on treatment of cells with DNA crosslinking agents, SNM1A forms subnuclear foci that are associated with ongoing sites of DNA repair.[37] […] As previously established, cisplatin treatment efficiently induces co-localisation of EGFP-SNM1A foci and γH2AX foci within 4 hours following treatment, marking sites of cisplatin damage and its repair (Fig. 6C–E). These largely resolved 24 hours post-treatment, again consistent with previous studies.[16,37] Co-treatment of cells with 19 and cisplatin saw a robust induction of SNM1A foci, consistent with the SNM1A activity being dispensable for its localisation to sites of crosslink repair, and γH2AX foci formation (Fig. 6C–E). […] This clear persistence of repair intermediates and trapping of EGFP-SNM1A at the sites of these repair intermediate implies that 19 engages with SNM1A in a cellular context, delaying the completion of cisplatin crosslink repair, which, in turn, results in the sensitisation of cells to cisplatin.
To assess the number of nuclear foci following cisplatin/inhibitor treatments, cells were plated in glass bottom dishes (as above) and allowed to attach. Following treatment, cells were fixed with 4% (v/v) formaldehyde in PBS, blocked with immunofluoresence (IF) blocking buffer (5% horse serum, 1% saponin in PBS) for 1 h, then incubated with primary antibodies at the desired concentrations in IF blocking buffer (overnight, 4 °C). After washing cells three times with PBS, cells were incubated with secondary antibodies for 2–4 hours in IF blocking buffer, washed a further 3 times with PBS then stained with Hoechst 333 258 (1 μg mL^−1 in PBS) for 30 minutes before a further three washes (all washes and incubations were performed at room temperature, unless otherwise stated).
Confocal images were obtained with a Plan APO 63X 1.40NA oil immersion objective, a pinhole setting of 1 AU, bandpass emission settings of 410–468 nm for Hoechst, 490–544 nm for EGFP, 579–624 nm for RFP or Alexa 568, and 633–695 nm for Alexa 647, a projected pixel dimension of around 110 nm × 110 nm, a pixel dwell time of 1.35 μs, and with a line averaging setting of 2. In order to ensure sufficient cell numbers (N > 300), images were acquired in a tiled 5 × 5 format corresponding to an image area of about 0.65 mm × 0.65 mm. Images were imported into ImageJ and foci were counted using a macro adjusting for staining levels between experiments. Anti-γH2AX antibodies were a mouse monoclonal (Millipore; JBW301).

[2] = test system: U2OS (osteosarcoma) cells; test: clonogenic survival assay, U2OS cells; assay type: cell-based, human
Experimental: Clonogenic assays were performed in 10 cm tissue culture dishes (for RPE-1 cells, U2OS cells and derived clones). Cells (1000 per dish) were seeded in complete media (10 mL) and allowed to attach overnight, then treated with cisplatin or cisplatin plus inhibitor for the times stated. Following treatments, cells were allowed to grow and form colonies for 10 days. Colonies formed were stained with Coomassie R250 (Sigma) and counted on a COLCount Colony Counter (Oxford Optronix). All experiments represent the mean (±SEM) of at least three biological repeats of duplicate dishes/flasks for each treatment.

SNM1C = molecular target: T1, SNM1C (Homo sapiens, UniProt Q96SD1); test: gel-based nuclease assay, SNM1C; assay type: biochemical; settings: 2.5 nM SNM1C
T1 construct: for the MBL and β-CASP domains of SNM1C (aa 1–362) into the baculovirus expression vector pBF-6HZB; made in house; host or cells: Sf9 insect cells (baculovirus)
T1 sequence (Q96SD1 1-362): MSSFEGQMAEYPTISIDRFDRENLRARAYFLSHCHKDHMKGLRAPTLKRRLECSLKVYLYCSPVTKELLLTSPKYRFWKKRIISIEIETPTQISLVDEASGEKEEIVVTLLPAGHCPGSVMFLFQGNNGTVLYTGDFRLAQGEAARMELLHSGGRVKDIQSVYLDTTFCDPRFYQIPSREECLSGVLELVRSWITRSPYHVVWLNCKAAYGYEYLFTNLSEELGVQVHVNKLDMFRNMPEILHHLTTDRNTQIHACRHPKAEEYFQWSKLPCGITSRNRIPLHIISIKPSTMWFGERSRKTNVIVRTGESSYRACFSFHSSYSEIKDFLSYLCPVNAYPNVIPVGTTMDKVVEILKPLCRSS
Text: To validate the inhibition of SNM1A, SNM1B, and SNM1C observed in the fluorescence-based screening assays, we then performed gel-based assays using 3′ terminally-labelled oligonucleotide substrates that enable both quantitative and qualitative (visual) assessment of the pattern of inhibition, for a subset of compounds. Importantly, whereas the fluorescence-based assay measures a single hydrolytic event at the substrate terminus, the gel-based nuclease assay informs on the pattern of digestion of the entire 51-mer substrate DNA over time.
Standard exonuclease assays were carried out in a 10 μL final volume containing 20 mM HEPES-KOH, pH 7.5, 50 mM KCl, 0.5 mM TCEP, 10 mM MgCl2, 0.05% (v/v) Triton X-100, 5% (v/v) glycerol, and SNM1 proteins as indicated. Inhibitors were dissolved in DMSO and diluted immediately prior to the reaction in the above buffer. Inhibitors were serially diluted two-fold from 100 μM. The DMSO concentration was kept constant at 0.1% (v/v) in the final reaction mixture. Inhibitors were incubated with the indicated SNM1 enzyme for 10 minutes at room temperature; reactions were initiated by addition of 10 nM DNA substrate and incubated at 37 °C for 20 min. Reactions were quenched by addition of 5 μL stop solution (95% formamide, 10 mM EDTA, 0.25% (v/v) xylene cyanol, 0.25% (v/v) bromophenol blue) and heated at 95 °C for 3 min. Reactions were analysed by 20% denaturing polyacrylamide gel electrophoresis solution of 19 : 1 acrylamide:bis-acrylamide, BioRad and 7 M urea (Sigma Aldrich) in 1 × TBE (Tris-borate EDTA) buffer. Electrophoresis was carried out at 525 V for 75 minutes; gels were subsequently fixed for 60 minutes in a 50% (v/v) methanol, 10% (v/v) acetic acid solution, and dried at 80 °C for two hours under vacuum. Dried gels were exposed to a Kodak Phosphor imager screen and scanned using a Typhoon 9500 instrument (GE Healthcare), scanned images were quantified using ImageJ.
Suppl. Figure 10. […] Products were analysed by 20% denaturing PAGE. […]

In the case of `C[C@H](Nc1nc(NCc2ccco2)nc2ccc(Cl)cc12)C(=O)NO` [compound 19], the “EGFP-SNM1A and γH2AX foci on co-treatment with cisplatin” value ([1]; U2OS EGFP-SNM1A, 50 μM compound + 50 μM cisplatin) was “persisted at 24 hours”, the “induction of EGFP-SNM1A and γH2AX foci by compound alone” value ([1]; U2OS EGFP-SNM1A, 50 μM compound alone) was “did not induce” and the “average number of γH2AX foci at 24 hours” value ([1]; U2OS, cisplatin treated with pretreatment with 50 μM 19) was 81.6 ± 1.7 foci. For the same compound, the “increase of average γH2AX foci number following pretreatment” value ([1]; U2OS, cisplatin treated, 24 hours) was 4 fold, the “effect on cisplatin cytotoxicity” value ([2]; U2OS wild-type, 50 μM compound 20 hours pre-treatment, 0–15 μM cisplatin) was “potentiation of cisplatin cytotoxicity” and the “cell death as single agent” value ([2]; U2OS, 50 μM compound) was at most 10%. The “cytotoxicity as single agent” value ([2]; U2OS, 100 μM compound) was “some cell death” and the “inhibition of SNM1C in gel-based assay” value (SNM1C) was “inhibits each of SNM1A–C”.
